pIC50: −log10 of the molar value.
Target: T1, cAMP and cAMP-inhibited cGMP 3',5'-cyclic phosphodiesterase 10A (Rattus norvegicus, UniProt Q9QYJ6)
T1 sequence (Q9QYJ6 whole entry): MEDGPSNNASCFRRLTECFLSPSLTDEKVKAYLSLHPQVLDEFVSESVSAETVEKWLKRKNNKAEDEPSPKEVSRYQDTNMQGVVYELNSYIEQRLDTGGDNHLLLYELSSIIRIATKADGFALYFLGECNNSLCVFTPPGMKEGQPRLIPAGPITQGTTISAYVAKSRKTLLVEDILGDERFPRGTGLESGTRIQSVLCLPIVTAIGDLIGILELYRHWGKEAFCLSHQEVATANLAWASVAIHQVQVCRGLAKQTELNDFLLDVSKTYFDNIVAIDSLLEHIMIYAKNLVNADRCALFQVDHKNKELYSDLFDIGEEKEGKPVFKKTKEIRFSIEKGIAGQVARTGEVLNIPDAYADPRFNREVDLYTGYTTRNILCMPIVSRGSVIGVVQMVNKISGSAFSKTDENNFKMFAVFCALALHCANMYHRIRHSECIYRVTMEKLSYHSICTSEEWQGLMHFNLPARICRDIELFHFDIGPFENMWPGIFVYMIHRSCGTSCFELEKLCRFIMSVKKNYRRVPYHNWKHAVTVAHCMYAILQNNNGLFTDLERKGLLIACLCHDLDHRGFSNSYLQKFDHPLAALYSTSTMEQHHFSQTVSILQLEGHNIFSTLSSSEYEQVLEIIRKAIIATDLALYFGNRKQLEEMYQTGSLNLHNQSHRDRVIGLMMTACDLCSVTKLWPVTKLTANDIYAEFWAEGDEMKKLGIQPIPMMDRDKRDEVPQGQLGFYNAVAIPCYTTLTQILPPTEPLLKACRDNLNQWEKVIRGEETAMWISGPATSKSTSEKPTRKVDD
Assay: Enzyme Inhibition Assay: Enzyme activity: An IMAP TR-FRET assay was used to analyze the enzyme activity (Molecular Devices Corp., Sunnyvale, Calif).

Compound	pIC50
OCc1ccc(N2CCC(Oc3ncccc3C3CCOCC3)CC2)nc1	5.93
O=Cc1ccc(N2CCC(Oc3ncccc3C3CCOCC3)CC2)nc1	5.83
Fc1ccc(N2CCC(Oc3ncccc3C3CCOCC3)CC2)nc1	5.53
N#Cc1ccc(N2CCC(Oc3ncccc3C3CCOCC3)CC2)nc1	6.08
FC(F)(F)c1ccc(N2CCC(Oc3ncccc3C3CCOCC3)CC2)nc1	5.66
CC(=O)c1ccc(N2CCC(Oc3ncccc3C3CCOCC3)CC2)nc1	6.42
Cc1ccc2ccc(N3CCC(Oc4ncccc4C4CCOCC4)CC3)nc2c1	6.58
COC(=O)c1ccc(N2CCC(Oc3ncccc3C3CCOCC3)CC2)nc1	6.70
Cc1ccc2ccc(N3CCC(Oc4nccnc4C4CCOCC4)CC3)nc2c1	6.29
Cc1cccc2ccc(N3CCC(Oc4nccnc4C4CCOCC4)CC3)nc12	5.11
Cc1cc(N2CCC(Oc3nccnc3C3CCOCC3)CC2)nc2ccccc12	6.90
Cc1ccc2nc(N3CCC(Oc4nccnc4C4CCOCC4)CC3)ccc2c1	6.56
c1ccc2[nH]c(N3CC[C@H](Oc4nccnc4C4CCOCC4)C3)nc2c1	5.41
Cc1ccc2nc(N3CCC(Oc4ncccc4C4CCOCC4)CC3)ccc2c1	6.33
Cc1cc(N2CCC(Oc3ncccc3C3CCOCC3)CC2)nc2ccccc12	7.00
Brc1cccnc1OC1CN(c2ccncn2)C1	4.24
Brc1cccnc1OC1CN(c2cccnn2)C1	7.60
CC(=O)N1CCC(c2nccnc2OC2CCN(c3ccccn3)CC2)CC1	5.55

Compound	pIC50
CC(=O)N1CCC(c2nccnc2OC2CCN(c3cccc(C)n3)CC2)CC1	5.98
CC(=O)N1CCC(c2nccnc2OC2CCN(c3ccc(C)cn3)CC2)CC1	5.79
CC(=O)N1CCC(c2nccnc2OC2CCN(c3cc(C)ccn3)CC2)CC1	6.00
CC(=O)N1CCC(c2nccnc2OC2CCN(c3ncccc3C)CC2)CC1	5.52
CC(=O)N1CCC(c2nccnc2OC2CCN(c3cccc(Cl)n3)CC2)CC1	6.63
CC(=O)N1CCC(c2nccnc2OC2CCN(c3ccc(Cl)cn3)CC2)CC1	6.09
CC(=O)N1CCC(c2nccnc2OC2CCN(c3cc(Cl)ccn3)CC2)CC1	7.02
CC(=O)N1CCC(c2nccnc2OC2CCN(c3ncccc3Cl)CC2)CC1	5.84
CC(=O)N1CCC(c2cccnc2OC2CCN(c3ccccn3)CC2)CC1	5.97
CC(=O)N1CCC(c2cccnc2OC2CCN(c3cccc(C)n3)CC2)CC1	5.93
CC(=O)N1CCC(c2cccnc2OC2CCN(c3ccc(C)cn3)CC2)CC1	5.93
CC(=O)N1CCC(c2cccnc2OC2CCN(c3cc(C)ccn3)CC2)CC1	5.75
CC(=O)N1CCC(c2cccnc2OC2CCN(c3ncccc3C)CC2)CC1	5.83
CC(=O)N1CCC(c2cccnc2OC2CCN(c3cccc(Cl)n3)CC2)CC1	6.25
CC(=O)N1CCC(c2cccnc2OC2CCN(c3ccc(Cl)cn3)CC2)CC1	5.92
CC(=O)N1CCC(c2cccnc2OC2CCN(c3ncccc3Cl)CC2)CC1	5.45
O=C(OCc1ccccc1)N1CCC(c2nc3ccccc3nc2OC2CN(c3ccc4ccccc4n3)C2)CC1	7.29
CC(C)(C)OC(=O)N1CCC(c2nc3ccccc3nc2OC2CN(c3ccc4ccccc4n3)C2)CC1	6.94

— ChEMBL document CHEMBL3639166, “Heteroaryloxyheterocyclyl compounds as PDE10 inhibitors” (2013)
